Counter-ions that a name gives are not always drawn.
Key:
[1] = target: T1, PDE10A (human) (Homo sapiens, UniProt Q9Y233); assay: Measurement of PDE activity (HTRF cAMP kit), human PDE10A; type: biochemical; details: PDE enzymatic reaction, substrate 20 nM for PDE10, 60 minutes at 29 C
T1 construct: purchased BPS Bioscience
Outline: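 HTRF detection of cAMP left after hydrolysis, expressed as percent of uninhibited control to derive IC50. Reaction: serially diluted inhibitor mixed with recombinant enzyme, started with 20 nM cAMP, 60 min at 29 °C in Tris-HCl pH 7.5 buffer containing MgCl2 and BSA.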

[2] = Determination of the microsomal half-life, rat liver microsomes; details: rat, liver microsomes, pH 7.4
[3] = Determination of the microsomal half-life, human liver microsomes; details: human, liver microsomes, pH 7.4

T1 sequence (Q9Y233 whole entry): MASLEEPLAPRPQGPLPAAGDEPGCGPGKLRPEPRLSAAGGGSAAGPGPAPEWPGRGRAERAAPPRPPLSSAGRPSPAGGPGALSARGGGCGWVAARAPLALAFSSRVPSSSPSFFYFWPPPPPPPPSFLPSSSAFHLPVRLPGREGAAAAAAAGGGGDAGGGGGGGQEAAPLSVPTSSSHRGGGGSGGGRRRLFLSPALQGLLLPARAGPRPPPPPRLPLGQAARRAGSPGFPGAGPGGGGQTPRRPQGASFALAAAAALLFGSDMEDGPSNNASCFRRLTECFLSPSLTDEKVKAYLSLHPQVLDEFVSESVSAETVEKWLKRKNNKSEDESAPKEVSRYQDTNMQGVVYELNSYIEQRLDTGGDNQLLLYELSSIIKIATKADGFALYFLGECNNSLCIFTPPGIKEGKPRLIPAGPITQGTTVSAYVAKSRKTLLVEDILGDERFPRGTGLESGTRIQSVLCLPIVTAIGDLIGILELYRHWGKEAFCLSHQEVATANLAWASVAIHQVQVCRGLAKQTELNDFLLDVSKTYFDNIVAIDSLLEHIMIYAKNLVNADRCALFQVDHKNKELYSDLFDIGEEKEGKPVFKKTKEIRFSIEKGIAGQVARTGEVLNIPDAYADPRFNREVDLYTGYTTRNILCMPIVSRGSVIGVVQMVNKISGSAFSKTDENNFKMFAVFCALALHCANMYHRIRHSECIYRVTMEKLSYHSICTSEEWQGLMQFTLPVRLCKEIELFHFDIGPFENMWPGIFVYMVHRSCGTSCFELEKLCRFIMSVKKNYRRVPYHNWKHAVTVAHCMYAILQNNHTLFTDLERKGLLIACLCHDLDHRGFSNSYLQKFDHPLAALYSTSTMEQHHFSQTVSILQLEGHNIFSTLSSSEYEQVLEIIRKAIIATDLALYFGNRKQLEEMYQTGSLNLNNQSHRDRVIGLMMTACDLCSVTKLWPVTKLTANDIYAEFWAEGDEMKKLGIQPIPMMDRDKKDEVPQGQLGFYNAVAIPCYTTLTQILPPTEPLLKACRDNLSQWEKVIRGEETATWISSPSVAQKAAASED

Row | SMILES | IC50 [1] [nM] | microsomal CLint at 0.5 μM [2] [µL/min/mg] | microsomal CLint at 0.5 μM [3] [µL/min/mg]
1 | O=C1c2c(cccc2-c2cncnc2)CN1CCc1nc2ccccc2[nH]1 [Example 312, 2-[2-(1H-Benzoimidazol-2-yl)-ethyl]-7-pyrimidin-5-yl-2,3-dihydro-isoindol-1-one trifluoroacetate] | < 100 | < 100 | < 100
2 | Cn1nccc1-c1cccc2c1CN(CCc1ccc3ccccc3n1)C2=O [Example 202, 4-(2-Methyl-2H-pyrazol-3-yl)-2-(2-quinolin-2-yl-ethyl)-2,3-dihydro-isoindol-1-one trifluoroacetate] | < 100 | > 220 | 100 to 220
3 | O=C1c2c(C3CCOCC3)ccnc2CN1CCc1ccc2ccccc2n1 [Example 297, 6-(2-Quinolin-2-yl-ethyl)-4-(tetrahydro-pyran-4-yl)-6,7-dihydro-pyrrolo[3,4-b]pyridin-5-one] | < 100 | 100 to 220 | 100 to 220
4 | COc1ccc(-c2ccnc3c2C(=O)N(CCc2ccc4ccccc4n2)C3)cc1 [Example 161, 4-(4-Methoxy-phenyl)-6-(2-quinolin-2-yl-ethyl)-6,7-dihydro-pyrrolo[3,4-b]pyridin-5-one] | < 100 | > 220 | 100 to 220
5 | COc1ccc(-c2cn[nH]c2)c2c1CN(CCc1ccc3ccccc3n1)C2=O [Example 180, 4-Methoxy-7-(1H-pyrazol-4-yl)-2-(2-quinolin-2-yl-ethyl)-2,3-dihydro-isoindol-1-one] | < 100 | > 220 | 100 to 220
6 | O=C1c2c(cccc2-c2ccc3nc[nH]c3c2)CN1CCc1ccc2ccccc2n1 [Example 11, 7-(3H-Benzoimidazol-5-yl)-2-(2-quinolin-2-yl-ethyl)-2,3-dihydro-isoindol-1-one trifluoroacetate] | < 100 | < 100 | < 100

The remaining lines, values ahead:

Row | IC50 [1] [nM] | microsomal CLint at 0.5 μM [2] [µL/min/mg] | microsomal CLint at 0.5 μM [3] [µL/min/mg] | SMILES
7 | < 100 | < 100 | < 100 | O=C1c2c(-c3ccncc3)ccnc2CN1CCc1ccc2ncccc2n1 [compound 512, 6-[2-(1,5-Naphthyridin-2-yl)ethyl]-4-(4-pyridyl)-7H-pyrrolo[3,4-b]pyridin-5-one]
8 | < 100 | 100 to 220 | 100 to 220 | O=C1c2c(OC3COC3)ccnc2CN1CCc1ccc2ccccc2n1 [compound 447, 4-(oxetan-3-yloxy)-6-[2-(2-quinolyl)ethyl]-7H-pyrrolo[3,4-b]pyridin-5-one]
9 | < 100 | < 100 | < 100 | COC(=O)C1CN(Cc2cccc3c2C(=O)N(CCc2ccc4ccccc4n2)C3)C1 [compound 531, 1-[3-Oxo-2-(2-quinolin-2-yl-ethyl)-2,3-dihydro-1H-isoindol-4-ylmethyl]-azetidine-3-carboxylic acid methyl ester]
10 | < 100 | 100 to 220 | > 220 | O=C1c2c(cccc2-c2cncnc2)CN1CCc1ccc2sccc2n1 [Example 559, 7-Pyrimidin-5-yl-2-(2-thieno[3,2-b]pyridin-5-ylethyl)isoindolin-1-one]
11 | < 100 | 100 to 220 | < 100 | COc1ccc(-c2cccnc2)c2c1C(=O)N(CCc1cn3ccccc3n1)C2 [compound 456, 2-(2-Imidazo[1,2-a]pyridin-2-yl-ethyl)-7-methoxy-4-pyridin-3-yl-2,3-dihydro-isoindol-1-one trifluoroacetate]
12 | 200 to 500 | > 220 | 100 to 220 | Cc1cnc(CCN2Cc3nccc(-c4ccncc4)c3C2=O)cc1C [compound 507, 6-[2-(4,5-Dimethyl-2-pyridyl)ethyl]-4-(4-pyridyl)-7H-pyrrolo[3,4-b]pyridin-5-one trifluoroacetate]
13 | 100 to 200 | > 220 | < 100 | Cc1cccc(CCN2Cc3nccc(N4CCOCC4)c3C2=O)n1 [compound 466, 6-[2-(6-Methyl-2-pyridyl)ethyl]-4-morpholino-7H-pyrrolo[3,4-b]pyridin-5-one]
